Laboratory results: ChEMBL document CHEMBL1821662 (Bioorg Med Chem Lett, 2011)

Key:
Aurora kinase A = molecular target: T1, Aurora kinase A (Homo sapiens, UniProt O14965); assay: Binding affinity to Aurora A kinase catalytic domain by competitive binding assay
T1 sequence (O14965 whole entry): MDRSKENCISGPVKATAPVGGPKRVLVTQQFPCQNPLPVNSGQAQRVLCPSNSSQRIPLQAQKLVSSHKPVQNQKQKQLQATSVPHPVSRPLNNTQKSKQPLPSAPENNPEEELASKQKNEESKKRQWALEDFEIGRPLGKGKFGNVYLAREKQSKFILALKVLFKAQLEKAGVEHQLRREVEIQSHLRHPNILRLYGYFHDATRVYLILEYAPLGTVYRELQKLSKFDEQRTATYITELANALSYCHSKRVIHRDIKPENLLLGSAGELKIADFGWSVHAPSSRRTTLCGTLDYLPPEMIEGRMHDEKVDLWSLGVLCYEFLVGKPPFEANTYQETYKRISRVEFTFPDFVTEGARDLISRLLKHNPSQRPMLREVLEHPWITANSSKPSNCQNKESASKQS

Aurora kinase B [1] = molecular target: T2, Aurora kinase B (Homo sapiens, UniProt Q96GD4); assay: Binding affinity to Aurora B kinase catalytic domain by competitive binding assay
Aurora kinase B [2] = molecular target: T2, Aurora kinase B; assay: Inhibition of Aurora B kinase assessed as reduction in histone H3 phosphorylation in human HCT116 cells; format: cell-based, HCT-116
HCT-116 = assay: Antiproliferative activity against human HCT116 cells; format: functional, cell-based
Aurora kinase C = molecular target: T3, Aurora kinase C (Homo sapiens, UniProt Q9UQB9); assay: Binding affinity to Aurora C kinase catalytic domain by competitive binding assay
T3 sequence (Q9UQB9 whole entry): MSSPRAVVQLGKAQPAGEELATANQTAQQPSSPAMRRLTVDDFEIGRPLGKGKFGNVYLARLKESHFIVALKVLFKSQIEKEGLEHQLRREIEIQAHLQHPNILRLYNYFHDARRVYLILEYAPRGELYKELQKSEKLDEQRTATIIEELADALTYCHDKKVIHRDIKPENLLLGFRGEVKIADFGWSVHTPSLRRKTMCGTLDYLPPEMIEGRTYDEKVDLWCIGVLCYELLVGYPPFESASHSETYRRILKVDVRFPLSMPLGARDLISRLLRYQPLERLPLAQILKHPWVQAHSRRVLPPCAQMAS

T2 sequence (Q96GD4 whole entry, the tested form may be a part): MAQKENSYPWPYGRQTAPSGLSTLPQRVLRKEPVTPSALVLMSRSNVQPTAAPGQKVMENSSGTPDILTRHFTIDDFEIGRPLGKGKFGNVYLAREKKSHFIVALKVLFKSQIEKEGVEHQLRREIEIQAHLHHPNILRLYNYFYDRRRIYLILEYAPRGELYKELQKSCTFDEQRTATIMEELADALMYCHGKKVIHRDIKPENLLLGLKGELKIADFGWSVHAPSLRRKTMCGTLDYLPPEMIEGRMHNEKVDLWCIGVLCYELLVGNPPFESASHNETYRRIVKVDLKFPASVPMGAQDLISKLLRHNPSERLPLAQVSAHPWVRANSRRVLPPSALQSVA

Structure (SMILES)	Kd (Aurora kinase A)	Kd (Aurora kinase B [1])	IC50 (Aurora kinase B [2])	IC50 (HCT-116)	Kd (Aurora kinase C)
Cc1cc(Nc2nc(Sc3ccc(NC(=O)CN4C[C@H](Oc5ccc(F)cc5F)[C@@H](O)C4)cc3)nn3cccc23)n[nH]1	13 nM	17 nM	58 nM	5 nM	–
COCCO[C@H]1CN(CC(=O)Nc2ccc(Sc3nc(Nc4cc(C)[nH]n4)c4cccn4n3)cc2)C[C@@H]1O	–	2 nM	49 nM	25 nM	–
Cc1cc(Nc2nc(Sc3ccc(NC(=O)CNC4CCCC4)cc3)nn3cccc23)n[nH]1	143 nM	42 nM	655 nM	365 nM	14 nM
Cc1cc(Nc2nc(Sc3ccc(NC(=O)CN4C[C@H](OC(C)(C)C)C[C@@H]4CO)cc3)nn3cccc23)n[nH]1	301 nM	69 nM	2490 nM	2390 nM	–
Cc1cc(Nc2nc(Sc3ccc(NC(=O)C4CC4)cc3)nn3cc(NC(=O)CN4CCOCC4)cc23)n[nH]1	7 nM	9 nM	420 nM	160 nM	3 nM
Cc1cc(Nc2nc(Sc3ccc(NC(=O)CN4C[C@H](Oc5ccccc5F)[C@@H](O)C4)cc3)nn3cccc23)n[nH]1	10 nM	9 nM	28 nM	4 nM	–
Cc1cc(Nc2nc(Sc3ccc(NC(=O)CN4C[C@H]5C[C@H]5[C@H]4CO)cc3)nn3cccc23)n[nH]1	17 nM	15 nM	179 nM	203 nM	–
Cc1cc(Nc2nc(Sc3ccc(NC(=O)CN(C)C)cc3)nn3cccc23)n[nH]1	31 nM	8 nM	293 nM	370 nM	5 nM
Cc1cc(Nc2nc(Sc3ccc(NC(=O)CN4C[C@H](Oc5cccc(F)c5)[C@@H](O)C4)cc3)nn3cccc23)n[nH]1	17 nM	10 nM	51 nM	7 nM	–
Cc1cc(Nc2nc(Sc3ccc(NC(=O)C4CC4)cc3)nn3cc(NC(=O)CCN4CCCCC4)cc23)n[nH]1	38 nM	37 nM	850 nM	101 nM	10 nM
Cc1cc(Nc2nc(Sc3ccc(NC(=O)C4CC4)cc3)nn3cc(NC(=O)CN4CCC[C@@H]4CO)cc23)n[nH]1	10 nM	16 nM	6300 nM	536 nM	80 nM
Cc1cc(Nc2nc(Sc3ccc(NC(=O)CNC4CC4)cc3)nn3cccc23)n[nH]1	32 nM	41 nM	288 nM	364 nM	6 nM
Cc1cc(Nc2nc(Sc3ccc(NC(=O)CN4C[C@H](SC(C)(C)C)C[C@H]4CO)cc3)nn3cccc23)n[nH]1	111 nM	39 nM	1790 nM	1610 nM	–

Further molecules by falling Kd (Aurora kinase B [1]), results first:

Kd (Aurora kinase A)	Kd (Aurora kinase B [1])	IC50 (Aurora kinase B [2])	IC50 (HCT-116)	Kd (Aurora kinase C)	Structure (SMILES)
23 nM	49 nM	828 nM	536 nM	13 nM	Cc1cc(Nc2nc(Sc3ccc(NC(=O)C4CC4)cc3)nn3cc(NC(=O)CN4CCCC4)cc23)n[nH]1
85 nM	41 nM	1830 nM	1840 nM	17 nM	Cc1cc(Nc2nc(Sc3ccc(NC(=O)CN4CCOCC4)cc3)nn3cccc23)n[nH]1
53 nM	21 nM	78 nM	24 nM	–	Cc1cc(Nc2nc(Sc3ccc(NC(=O)CN4C[C@H](Oc5ccc(F)cc5)C[C@H]4CO)cc3)nn3cccc23)n[nH]1
8 nM	5 nM	29 nM	25 nM	2 nM	Cc1cc(Nc2nc(Sc3ccc(NC(=O)CN4CC(F)(F)C[C@H]4CO)cc3)nn3cccc23)n[nH]1
8 nM	4 nM	23 nM	10 nM	–	Cc1cc(Nc2nc(Sc3ccc(NC(=O)CN4C[C@H](OC(C)C)[C@@H](O)C4)cc3)nn3cccc23)n[nH]1
5 nM	1 nM	47 nM	33 nM	–	Cc1cc(Nc2nc(Sc3ccc(NC(=O)CN4C[C@H](O)[C@@H](F)C4)cc3)nn3cccc23)n[nH]1
